These are literature values, as cited in patent US20070037707A1, “Plant growth regulator formulations” (HELENA HOLDING COMPANY, priority 2005, published 2007).

Assay in series [1]: not given
This is another data set of the same source.

The subject of a further series is organically grown cotton. The settings on record: used alone; compared with conventional chemistry like (2-chloroethyl) phosphonic acid.

Take `O=P(O)(O)CCCl` [(2-chloroethyl)phosphonic acid]: the water solubility result is “water soluble”. In addition, the “pH of the pure product” value in series [1] (according to the MSDS sheet for a formulated product) is given as 1.7. Moreover, in series [1] (at higher pH decomposes and liberates ethylene, Pesticide Manual), the “pH range in which stable” value is on record as “below 3.5”.
On to `O=C(O)CC(O)(CC(=O)O)C(=O)O` [Citric acid], for which the “effectiveness as cotton defoliant” value in the series on organically grown cotton was “not as effective”.
